The values below come from patent publication US6270799A, “Medicament formulation with a controlled release of an active agent” (Bayer Aktiengesellscahft, priority 1997, dated 2001).

The structures appear in SMILES notation.

The nature of one data set: water solubility. Type of data set: physicochemical. As to conditions: compound I and/or its salts and/or hydrates.
Data set [1] has as its system gram-negative and gram-positive bacteria. To be noted: against gram-negative and gram-positive bacteria; relative to sparfloxacin and ciprofloxacin; Drugs of the Future 1997, 22 (2): 109/113; cited from earlier work.
Data set [2] in a line: absorption behaviour in the lower sections of the intestine. Type of data set: in vivo. As to conditions: in contrast to ciprofloxacin. The text has this:
It was therefore the object of the present invention to develop a drug formulation of the compound I and pharmaceutically tolerable salts thereof and/or their hydrates which meets the requirements described above. […] Only this surprising absorption behaviour of moxifloxacin, which is different from known quinolonecarboxylic acid antibiotics, opens up any possibility of developing a retard formulation of moxifloxacin.

On to `COc1c(N2C[C@@H]3CCCN[C@@H]3C2)c(F)cc2c(=O)c(C(=O)O)cn(C3CC3)c12` [compound I, 1-cyclopropyl-7-([S,S]-2,8-diazabicyclo[4.3. 0]non-8-yl)-6-fluoro-1,4-dihydro-8-methoxy-4-oxo-3-quino-lonecarboxylic acid], for which the solubility in the data set “water solubility” was ~24 mg/mL. Further, the antibacterial action entry in data set [1] was “frequently significantly better than that of sparfloxacin and ciprofloxacin”. As for `COc1c(N2C[C@@H]3CCCN[C@@H]3C2)c(F)cc2c(=O)c(C(=O)O)cn(C3CC3)c12` [compound II], the “absorption in the lower sections of the intestine (colon, rectum)” value in data set [2] was “also absorbed in the lower sections of the intestine (colon, rectum)”.
